Results from US20040156869A1, “2-substituted quinazolin-4-ylamine analogues” (Neurogen Corporation, priority 2002, published 2004).

Biological target: human capsaicin receptor (VR1) (Homo sapiens, UniProt Q8NER1)
Experiment: Capsaicin receptor binding assay ([3H]RTX competition, VR1-transfected HEK293 membranes)

human capsaicin receptor (VR1), sequence (Q8NER1 whole entry): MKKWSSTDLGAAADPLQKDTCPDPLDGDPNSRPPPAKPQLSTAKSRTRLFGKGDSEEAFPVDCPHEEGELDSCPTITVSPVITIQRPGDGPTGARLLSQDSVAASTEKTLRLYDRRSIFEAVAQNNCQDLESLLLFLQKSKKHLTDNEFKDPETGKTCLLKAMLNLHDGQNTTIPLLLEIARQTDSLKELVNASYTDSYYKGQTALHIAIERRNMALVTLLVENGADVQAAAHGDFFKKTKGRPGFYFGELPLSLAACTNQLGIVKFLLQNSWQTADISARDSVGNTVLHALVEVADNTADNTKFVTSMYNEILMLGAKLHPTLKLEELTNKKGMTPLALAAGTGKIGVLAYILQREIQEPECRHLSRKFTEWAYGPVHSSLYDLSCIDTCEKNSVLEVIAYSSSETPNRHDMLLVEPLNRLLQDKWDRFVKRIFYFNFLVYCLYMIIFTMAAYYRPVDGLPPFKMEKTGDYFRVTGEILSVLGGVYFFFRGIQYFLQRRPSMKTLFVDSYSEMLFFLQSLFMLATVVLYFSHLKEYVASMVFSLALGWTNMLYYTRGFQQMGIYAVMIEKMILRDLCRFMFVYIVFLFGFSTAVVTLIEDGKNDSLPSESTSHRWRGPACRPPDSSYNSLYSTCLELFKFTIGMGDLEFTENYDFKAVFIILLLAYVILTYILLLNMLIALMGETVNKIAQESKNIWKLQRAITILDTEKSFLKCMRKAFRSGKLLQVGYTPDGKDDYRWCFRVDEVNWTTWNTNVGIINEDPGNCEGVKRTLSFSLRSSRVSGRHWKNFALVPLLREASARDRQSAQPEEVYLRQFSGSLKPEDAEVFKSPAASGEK

Ki, < 1 µM:
C[C@@H]1CN(Cc2nc(Nc3ccc(C(F)(F)F)nc3)c3ncc(-c4ncccc4C(F)(F)F)cc3n2)C[C@H](C)O1 [Compound 547, [2-(2,6-Dimethyl-morpholin-4-ylmethyl)-7-(3-trifluoromethyl-pyridin-2-yl)-pyrido[3,2-d]pyrimidin-4-yl]-(6-trifluoromethyl-pyridin-3-yl)-amine (cis)]
CC(CN(C)C)NC(=O)c1nc(Nc2ccc(C(F)(F)F)cc2)c2ccc(-c3ncccc3C(F)(F)F)nc2n1 (centres unmarked) [Compound 444, 4-(4-Trifluoromethyl-phenylamino)-7-(3-trifluoromethyl-pyridin-2-yl)-pyrido[2,3-d]pyrimidine-2-carboxylic acid (2-dimethylamino-1-methyl-ethyl)-amide]
FC(F)(F)c1ccc(Nc2nc(CCN3CCCCCCC3)nc3cc(-c4ncccc4C(F)(F)F)ccc23)cc1 [Compound 405, [2-Azocan-1-ylethyl-7-(3-trifluoromethyl-pyridin-2-yl)-quinazolin-4-yl]-(4-trifluoromethyl-phenyl)-amine]
CC(C)(CO)c1nc(Nc2ccc(C(F)(F)F)cc2)c2ccc(-c3ncccc3C(F)(F)F)cc2n1 [Compound 218, 2-Methyl-2-[4-(4-trifluoromethyl-phenylamino)-7-(3-trifluoromethyl-pyridin-2-yl)-quinazolin-2-yl]-propan-1-ol]
CCOCc1nc(Nc2ccc(C(F)F)cc2)c2ccc(-c3ncccc3C(F)(F)F)nc2n1 [Compound 241, (4-Difluoromethyl-phenyl)-[2-ethoxymethyl-7-(3-trifluoromethyl-pyridin-2-yl)-pyrido[2,3-d]pyrimidin-4-yl]-amine]
CCc1ccc(Nc2nc(COCC(C)C)nc3nc(-c4ncccc4Cl)ccc23)cc1 [Compound 265, [7-(3-Chloro-pyridin-2-yl)-2-isobutoxymethyl-pyrido[2,3-d]pyrimidin-4-yl]-(4-ethyl-phenyl)-amine]
Cc1cccnc1-c1ccc2c(Nc3ccc(C(C)(C)C)cc3)nc(C(=O)O)nc2n1 [Compound 207, 4-(4-tert-Butyl-phenylamino)-7-(3-methyl-pyridin-2-yl)-pyrido[2,3-d]pyrimidine-2-carboxylic acid]
O=C(O)c1nc(Nc2ccc(C(F)(F)F)cc2)c2ccc(-c3ncccc3C(F)(F)F)cc2n1 [Compound 100, 4-(4-Trifluoromethyl-phenylamino)-7-(3-trifluoromethyl-pyridin-2-yl)-quinazoline-2-carboxylic acid]
Cc1cccnc1-c1ccc2c(Nc3ccc(C(F)(F)F)cc3)nc(C3CN(C(=O)OC(C)(C)C)C3)nc2n1 [Compound 727, 3-[7-(3-Methyl-pyridin-2-yl)-4-(4-trifluoromethyl-phenylamino)-pyrido[2,3-d]pyrimidin-2-yl]-azetidine-1-carboxylic acid tert-butyl ester]
CC(C)(C)c1ccc(Nc2nc(CN3CCCS3(=O)=O)nc3cc(-c4ncccc4C(F)(F)F)ccc23)cc1 [Compound 697, (4-tert-Butyl-phenyl)-[2-(1,1-dioxo-1λ^6-isothiazolidin-2-ylmethyl)-7-(3-trifluoromethyl-pyridin-2-yl)-quinazolin-4-yl]-amine]
CCOCc1nc(Nc2ccc(C(C)(C)C)nc2)c2ccc(-c3ncccc3Cl)cc2n1 [Compound 82, (6-tert-Butyl-pyridin-3-yl)-[7-(3-chloro-pyridin-2-yl)-2-ethoxymethyl-quinazolin-4-yl]-amine]
CCOCc1nc(Nc2ccc(C3CCCC3)cc2)c2ccc(-c3ncccc3Cl)nc2n1 [Compound 137, [7-(3-Chloro-pyridin-2-yl)-2-ethoxymethyl-pyrido[2,3-d]pyrimidin-4-yl]-(4-cyclopentyl-phenyl)-amine]
CN1CCC(c2nc(Nc3ccc(C(C)(C)C)cc3)c3ccc(-c4ncccc4Cl)nc3n2)CC1 [Compound 769, (4-tert-Butyl-phenyl)-[7-(3-chloro-pyridin-2-yl)-2-(1-methyl-piperidin-4-yl)-pyrido[2,3-d]pyrimidin-4-yl]-amine]
O=C(NCCN1CCCC1)c1nc(Nc2ccc(C(F)(F)F)cc2)c2ccc(-c3ncccc3C(F)(F)F)nc2n1 [Compound 437, 4-(4-Trifluoromethyl-phenylamino)-7-(3-trifluoromethyl-pyridin-2-yl)-pyrido[2,3-d]pyrimidine-2-carboxylic acid (2-pyrrolidin-1-yl-ethyl)-amide]
Cc1cccnc1-c1ccc2c(Nc3ccc(C(F)(F)F)cc3)nc(COC3CCOCC3)nc2c1 [Compound 92, [7-(3-Methyl-pyridin-2-yl)-2-(tetrahydro-pyran-4-yloxymethyl)-quinazolin-4-yl]-(4-trifluoromethyl-phenyl)-amine]
FC(F)(F)c1ccc(Nc2nc(-c3ccncc3)nc3cc(-c4ncccc4C(F)(F)F)ccc23)cc1 [Compound 507, [2-Pyridin-4-yl-7-(3-trifluoromethyl-pyridin-2-yl)-quinazolin-4-yl]-(4-trifluoromethyl-phenyl)-amine]
CC(C)COCc1nc(Nc2ccc(C(C)(C)C)nc2)c2ccc(-c3ncccc3C(F)(F)F)nc2n1 [Compound 192, (6-tert-Butyl-pyridin-3-yl)-[2-isobutoxymethyl-7-(3-trifluoromethyl-pyridin-2-yl)-pyrido[2,3-d]pyrimidin-4-yl]-amine]
COCc1cc(Nc2ccc(C#N)cc2)c2ccc(-c3ncccc3C(F)(F)F)nc2n1 [Compound 305, 4-[2-Methoxymethyl-7-(3-trifluoromethyl-pyridin-2-yl)-[1,8]naphthyridin-4-ylamino]-benzonitrile]
CS(=O)(=O)N1CCc2cc(Nc3nc(COCc4ccccc4)nc4cc(-c5ncccc5C(F)(F)F)ccc34)ccc21 [Compound 44, [2-Benzyloxymethyl-7-(3-trifluoromethyl-pyridin-2-yl)-quinazolin-4-yl]-(1-methanesulfonyl-2,3-dihydro-1H-indol-5-yl)-amine]
CC(=O)c1ccc(Nc2nc(COCC(C)C)nc3nc(-c4ncccc4Cl)ccc23)cc1 [Compound 262, 1-{4-[7-(3-Chloro-pyridin-2-yl)-2-isobutoxymethyl-pyrido(2,3-d]pyrimidin-4-ylamino]-phenyl}-ethanone]
CCCN(CCc1nc(Nc2ccc(C(F)(F)F)cc2)c2ccc(-c3ncccc3C(F)(F)F)cc2n1)CC1CC1 [Compound 418, [2-[(Cyclopropylmethyl-propyl-amino)-ethyl]-7-(3-trifluoromethyl-pyridin-2-yl)-quinazolin-4-yl]-(4-trifluoromethyl-phenyl)-amine]
CC(C)(C)c1ccc(Nc2nc(CCCO)nc3cc(-c4ncccc4C(F)(F)F)ccc23)cn1 [Compound 16, 3-[4-(6-tert-Butyl-pyridin-3-ylamino)-7-(3-trifluoromethyl-pyridin-2-yl)-quinazolin-2-yl]-propan-1-ol]
CC(C)Oc1ccc(Nc2nc(CN3C[C@@H](C)O[C@H](C)C3)nc3cc(-c4ncccc4Cl)ccc23)cn1 [Compound 629, (R,R)-[7-(3-Chloro-pyridin-2-yl)-2-(2,6-dimethyl-morpholin-4-ylmethyl)-quinazolin-4-yl]-(6-isopropoxy-pyridin-3-yl)-amine]
